Results reported in US20090233907A1, “Pyridopyrimidine Derivatives and Their Use as PDE4 Inhibitors” (ASTRAZENECA AB, priority 2006, published 2009).

What follows are compounds tested against recombinant Human Phosphodiesterase B2 (PDE4B2) (Homo sapiens, UniProt Q07343) (assay: Human Phosphodiesterase B2 Alpha Screen Assay). Details: Alpha Screen cAMP assay.
Assay type: biochemical
Description: Human Phosphodiesterase B2 Alpha Screen Assay
The assay uses recombinant Human Phosphodiesterase B2 (PDE4B2) produced in house (PrAZL0133), stored at −20° C. The substrate uses cAMP, part of the Alpha Screen cAMP kit (Perkin Elmer, Cat# 6760625M), stored at 4° C. The Alpha Screen kit also includes biotinylated cAMP, acceptor and donor beads.
The assay additions were as follows: Test compounds and controls were added to white 384-well flat-bottom plates (Greiner, Cat# 781075), 0.2 μl in 100% DMSO, followed by 10 μl PDE4B2 in reaction buffer. The reaction buffer constitution was: 50 mM Tris (pH 7.5), 8.3 mM MgCl2, 1.7 mM EGTA and 0.01% (w/v) Brij®35. The enzyme and the compounds were incubated at room temperature for 15 minutes. Then 10 μl cAMP in reaction buffer was added. The assay was stopped after 60 minutes incubation at room temperature by adding 10 μl acceptor beads in detection buffer with 40 mM EDTA. The detection buffer constitution was: 5 mM Tris (pH 7.5), 0.1% (w/v) BSA and 0.1% (v/v) Tween 20. This addition followed by an addition of 10 μl donor beads in detection buffer, with biotinylated cAMP. The plates were then incubated, dark at room temperature, for 5 hours followed by measurement on a Fusion™-α analyser. IC50 values (presented in Table 4) were determined using Xlfit curve fitting using model 205.

recombinant Human Phosphodiesterase B2 (PDE4B2), sequence (Q07343 1-564 isoform Q07343-2): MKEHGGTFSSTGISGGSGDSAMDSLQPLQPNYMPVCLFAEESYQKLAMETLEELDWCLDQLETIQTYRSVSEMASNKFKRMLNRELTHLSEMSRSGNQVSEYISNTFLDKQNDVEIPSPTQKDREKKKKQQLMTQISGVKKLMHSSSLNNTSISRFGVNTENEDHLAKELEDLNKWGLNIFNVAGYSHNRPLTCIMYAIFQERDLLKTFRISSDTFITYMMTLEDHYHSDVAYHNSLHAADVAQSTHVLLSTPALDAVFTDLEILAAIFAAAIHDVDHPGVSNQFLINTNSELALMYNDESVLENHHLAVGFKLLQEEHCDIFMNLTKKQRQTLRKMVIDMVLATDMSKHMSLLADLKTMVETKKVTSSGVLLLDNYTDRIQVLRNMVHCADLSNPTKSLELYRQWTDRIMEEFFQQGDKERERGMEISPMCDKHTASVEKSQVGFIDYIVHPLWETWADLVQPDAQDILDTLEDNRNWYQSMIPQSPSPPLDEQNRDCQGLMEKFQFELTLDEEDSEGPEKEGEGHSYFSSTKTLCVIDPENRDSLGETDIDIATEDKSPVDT

SMILES	IC50
Cc1ccc(C(=O)N[C@H]2CC[C@@H](n3c(=O)c4cc(F)cnc4n(C4CCSCC4)c3=O)CC2)c(O)c1 [Example 9, N-{cis-4-[6-fluoro-2,4-dioxo-1-(tetrahydro-2H-thiopyran-4-yl)-1,4-dihydropyrido[2,3-d]pyrimidin-3(2H)-yl]cyclohexyl}-2-hydroxy-4-methylbenzamide]	3.75 nM
O=C(Cc1ccc(O)cc1)N[C@H]1CC[C@@H](n2c(=O)c3cc(F)cnc3n(C3CCSCC3)c2=O)CC1 [Example 15, N-{cis-4-[6-fluoro-2,4-dioxo-1-(tetrahydro-2H-thiopyran-4-yl)-1,4-dihydropyrido[2,3-d]pyrimidin-3(2H)-yl]cyclohexyl}-2-(4-hydroxyphenyl)acetamide]	1.75 nM
COc1ccc(C(=O)N[C@H]2CC[C@@H](n3c(=O)c4cc(F)cnc4n(C4CCSCC4)c3=O)CC2)cc1O [Example 7, N-{cis-4-[6-fluoro-2,4-dioxo-1-(tetrahydro-2H-thiopyran-4-yl)-1,4-dihydropyrido[2,3-d]pyrimidin-3(2H)-yl]cyclohexyl}-3-hydroxy-4-methoxybenzamide]	0.874 nM
O=C(Cc1cccc(O)c1)N[C@H]1CC[C@@H](n2c(=O)c3cc(F)cnc3n(C3CCSCC3)c2=O)CC1 [Example 8, N-{cis-4-[6-fluoro-2,4-dioxo-1-(tetrahydro-2H-thiopyran-4-yl)-1,4-dihydropyrido[2,3-d]pyrimidin-3(2H)-yl]cyclohexyl}-2-(3-hydroxyphenyl)acetamide]	1.62 nM
O=C(CNC(=O)c1ccccc1O)N[C@H]1CC[C@@H](n2c(=O)c3cc(F)cnc3n(C3CCSCC3)c2=O)CC1 [Example 6, N-[2-({cis-4-[6-fluoro-2,4-dioxo-1-(tetrahydro-2H-thiopyran-4-yl)-1,4-dihydropyrido[2,3-d]pyrimidin-3(2H)-yl]cyclohexyl}amino)-2-oxoethyl]-2-hydroxybenzamide]	1.02 nM
COc1cc(C(=O)N[C@H]2CC[C@@H](n3c(=O)c4cc(F)cnc4n(C4CCSCC4)c3=O)CC2)ccc1O [Example 11, N-{cis-4-[6-fluoro-2,4-dioxo-1-(tetrahydro-2H-thiopyran-4-yl)-1,4-dihydropyrido[2,3-d]pyrimidin-3(2H)-yl]cyclohexyl}-4-hydroxy-3-methoxybenzamide]	1.61 nM
O=C(N[C@H]1CC[C@@H](n2c(=O)c3cc(F)cnc3n(C3CCSCC3)c2=O)CC1)c1cc2ccccn2n1 [Example 4, N-{cis-4-[6-fluoro-2,4-dioxo-1-(tetrahydro-2H-thiopyran-4-yl)-1,4-dihydropyrido[2,3-d]pyrimidin-3(2H)-yl]cyclohexyl}pyrazolo[1,5-a]pyridine-2-carboxamide]	0.674 nM
O=C(N[C@H]1CC[C@@H](n2c(=O)c3cc(F)cnc3n(C3CCSCC3)c2=O)CC1)C1CC1 [Example 1, N-{cis-4-[6-Fluoro-2,4-dioxo-1-(tetrahydro-2H-thiopyran-4-yl)-1,4-dihydropyrido[2,3-d]pyrimidin-3(2H)-yl]cyclohexyl}cyclopropanecarboxamide]	4.59 nM
O=C(N[C@H]1CC[C@@H](n2c(=O)c3cc(F)cnc3n(C3CCSCC3)c2=O)CC1)c1cccc(O)c1 [Example 14, N-{cis-4-[6-fluoro-2,4-dioxo-1-(tetrahydro-2H-thiopyran-4-yl)-1,4-dihydropyrido[2,3-d]pyrimidin-3(2H)-yl]cyclohexyl}-3-hydroxybenzamide]	1.8 nM

Further lines, results first:

IC50	SMILES
4.31 nM	O=C(N[C@H]1CC[C@@H](n2c(=O)c3cc(F)cnc3n(C3CCSCC3)c2=O)CC1)c1cc(CO)ccc1O [Example 26, N-{cis-4-[6-fluoro-2,4-dioxo-1-(tetrahydro-2H-thiopyran-4-yl)-1,4-dihydropyrido[2,3-d]pyrimidin-3(2H)-yl]cyclohexyl}-2-hydroxy-5-(hydroxymethyl)benzamide]
5.51 nM	O=C(N[C@H]1CC[C@@H](n2c(=O)c3cc(F)cnc3n(C3CCSC3)c2=O)CC1)c1cc(CO)ccc1O (relative stereo) [Example 29, N-{cis-4-[6-fluoro-2,4-dioxo-1-(tetrahydro-3-thienyl)-1,4-dihydropyrido[2,3-d]pyrimidin-3(2H)-yl]cyclohexyl}-2-hydroxy-5-(hydroxymethyl)benzamide]
10.7 nM	O=C(N[C@H]1CC[C@@H](n2c(=O)c3cc(F)cnc3n(C3CCSC3)c2=O)CC1)C1CC1 (relative stereo) [Example 27, N-{cis-4-[6-fluoro-2,4-dioxo-1-(tetrahydro-3-thienyl)-1,4-dihydropyrido[2,3-d]pyrimidin-3(2H)-yl]cyclohexyl}cyclopropanecarboxamide]
1.69 nM	O=C(N[C@H]1CC[C@@H](n2c(=O)c3cc(F)cnc3n(C3CCSCC3)c2=O)CC1)c1ccc(O)cc1 [Example 16, N-{cis-4-[6-fluoro-2,4-dioxo-1-(tetrahydro-2H-thiopyran-4-yl)-1,4-dihydropyrido[2,3-d]pyrimidin-3(2H)-yl]cyclohexyl}-4-hydroxybenzamide]
6.45 nM	O=C(N[C@H]1CC[C@@H](n2c(=O)c3cc(F)cnc3n(C3CCSC3)c2=O)CC1)c1ccccc1O (relative stereo) [Example 30, N-{cis-4-[6-fluoro-2,4-dioxo-1-(tetrahydro-3-thienyl)-1,4-dihydropyrido[2,3-d]pyrimidin-3(2H)-yl]cyclohexyl}-2-hydroxybenzamide]
2.75 nM	Cc1ccc(C(=O)N[C@H]2CC[C@@H](n3c(=O)c4cc(F)cnc4n(C4CCSC4)c3=O)CC2)c(O)c1 (relative stereo) [Example 31, N-{cis-4-[6-fluoro-2,4-dioxo-1-(tetrahydro-3-thienyl)-1,4-dihydropyrido[2,3-d]pyrimidin-3(2H)-yl]cyclohexyl}-2-hydroxy-4-methylbenzamide]
2.76 nM	O=C(N[C@H]1CC[C@@H](n2c(=O)c3cc(F)cnc3n(C3CCSCC3)c2=O)CC1)c1ccco1 [Example 24, N-{cis-4-[6-fluoro-2,4-dioxo-1-(tetrahydro-2H-thiopyran-4-yl)-1,4-dihydropyrido[2,3-d]pyrimidin-3(2H)-yl]cyclohexyl}-2-furamide]
4.65 nM	O=C(N[C@H]1CC[C@@H](n2c(=O)c3cc(F)cnc3n(C3CCSCC3)c2=O)CC1)c1ccccc1O [Example 17, N-{cis-4-[6-fluoro-2,4-dioxo-1-(tetrahydro-2H-thiopyran-4-yl)-1,4-dihydropyrido[2,3-d]pyrimidin-3(2H)-yl]cyclohexyl}-2-hydroxybenzamide]
0.877 nM	O=C(N[C@H]1CC[C@@H](n2c(=O)c3cc(F)cnc3n(C3CCSCC3)c2=O)CC1)C(O)c1ccccc1 (relative stereo) [Example 22, N-{cis-4-[6-fluoro-2,4-dioxo-1-(tetrahydro-2H-thiopyran-4-yl)-1,4-dihydropyrido[2,3-d]pyrimidin-3(2H)-yl]cyclohexyl}-2-hydroxy-2-phenylacetamide]
4.72 nM	CC(C)CC(=O)N[C@H]1CC[C@@H](n2c(=O)c3cc(F)cnc3n(C3CCSCC3)c2=O)CC1 [Example 21, N-{cis-4-[6-fluoro-2,4-dioxo-1-(tetrahydro-2H-thiopyran-4-yl)-1,4-dihydropyrido[2,3-d]pyrimidin-3(2H)-yl]cyclohexyl}-3-methylbutanamide]
2.15 nM	O=C(N[C@H]1CC[C@@H](n2c(=O)c3cc(F)cnc3n(C3CCSCC3)c2=O)CC1)C1CCCCC1 [Example 18, N-{cis-4-[6-fluoro-2,4-dioxo-1-(tetrahydro-2H-thiopyran-4-yl)-1,4-dihydropyrido[2,3-d]pyrimidin-3(2H)-yl]cyclohexyl}cyclohexanecarboxamide]
